Measured values reported in US20200061076A1, “METHODS OF TREATING LEUKODYSTROPHIES” (Ramot at Tel-Aviv University Ltd., priority 2017, published 2020).

Legend:
[1] = tested on: Mut MEFs (primary fibroblasts from Eif2b5 R132H/R132H mice); assay: Image-based single cell analysis of ROS level (cellROX); parameters: species or system mouse; settings: 10 μM, 24 hours incubation, compared with WT level (FIG. 3)
Description: Mut MEFs were treated with the indicated compounds at 10 μM for 24 hours followed by staining with fluorogenic dyes and image-based single-cell analysis. Shown is average effect on ROS level from at least 3-independent experiments ±SEM. All values are statistically significant, p<0.02. The extreme SEM points of all values are below the 90% cut-off, therefore the actual average reduction is between 12% and 29%. […] Mut MEFs were incubated or not for 24 hours with 10 μM of the indicated compound, washed and stained with Crystal Violet. Shown is average absorbance at 570 nm normalized (%) to non-treated cells of 3 independent experiments ±SEM, * p=0.0003. […] Mut MEFs were incubated or not for 24 hours with 10 μM of the indicated compound, washed and stained with JC1 and Hoechst followed by image-based single-cell analysis. […]
To assay the compounds, cellROX, a reactive oxygen species (ROS) fluorescent detector and a preferred in-situ mitochondrial content detector, was used for single cell-based imaging analysis as detailed previously (Raini et al., 2017). […] Compounds toxicity was evaluated by testing cell survival following 24 hours incubation with 10 μM of each compound using crystal violet staining (FIG. 14B). […] The other 19 compounds were not toxic; therefore, maximal working concentrations tolerated by the cells were further evaluated (Table 3 hereinbelow).

Mut MEFs [2] = assay: Cell survival assay, Crystal violet staining, Mut MEFs; assay type: cell-based, mouse; settings: for Survival (%) ± SEM Mut MEFs: 24 hours, untreated cells set to 100%
Description: (§1) Cells were seeded on 96-wells plate at a density of 5000 cells per well. Astrocytes were seeded following coating with 0.001% PDL.

Mut MEFs [3] = assay: TMRE staining, flow cytometry; assay type: cell-based, mouse; settings: 1 μM, 6 hours (FIGS. 5A-B)
Description: Mut MEFs were treated or untreated with the indicated concentrations of the indicated Sig-1R binders for 6 hours, stained by TMRE for 30 minutes and analyzed by flow cytometry. Shown are flow cytometry histograms and bar graphs representing % mean TMRE fluorescence intensity relative to non-treated WT cells of a representative experiment.
MEFs were seeded at a density of 4×10^4 cells per well in a 24-wells plate. 24 hours post-plating the cells were incubated with the tested compounds for additional 6 hours followed by staining with 200 nM Tetra-Methyl-Rhodamine-Ethyl esterperchlorate (TMRE) (Abcam) for 30 minutes at 37° C. Cells were removed by trypsinyzation, washed and resuspended in PBS. 5-10×10^3 cells were analyzed by Stratedigm S1000EXi cell sorter and FlowJo software (FLOWJO, LLC, Ashland, Oreg., USA).

Mut primary astrocytes [4] = assay: Oxygen consumption (OCR), primary astrocytes; assay type: cell-based, mouse; settings: 1 or 10 μm, 6 hours, normalized to cell number (FIGS. 17B-C)
Description: (§2) Shown is average relative quantity (RQ) of 2-6 independent experiments normalized to their untreated controls ±SEM. […] Values of ATP-linked respiration (FIG. 17B) and maximal respiration (FIG. 17C) were analyzed and normalized to cell number.
The data were normalized to cell number, obtained by Crystal Violet staining, or to mtDNA content.

Mut primary astrocytes [5] = assay: mtDNA quantification, primary astrocytes; assay type: cell-based, mouse; settings: 1 or 10 μm, 6 hours (FIG. 17A)
Description: as §2

Mut astrocytes = assay: Survival under Tunicamycin-induced ER stress, Crystal Violet, astrocytes; assay type: cell-based, mouse; settings: 20-50 μM, 50 ng/ml Tunicamycin last 22 hours (FIG. 19)
Description: WT and Mut astrocytes were treated or not for 24 hours with 20, 30 or 50 μM of the indicated Sig-1R binders in the presence of 50 ng/ml Tunicamycin (Tun) during the last 22 hours. Following, the cells were washed, fixated and stained with Crystal Violet (CV) followed by measurement of absorbance at 570 nm. Shown is % of CV staining relative to cells not treated with tunicamycin nor Sig-1R binder ±SEM of 3 independent experiments, *p<0.05.
as §1

Mut MEFs [6] = assay: Survival under Tunicamycin-induced ER stress, Crystal Violet, MEFs; settings: 20 μM, 24 hours, Tunicamycin during the last 22 hours (FIGS. 9, 10 and 18)
Description: Mut MEFs were treated or not for 24 hours with the indicated concentrations of the indicated Sig-1R binders in the presence of 0.1 μg/ml Tunicamycin (Tun) during the last 22 hours. Following, the cells were washed, fixated and stained with Crystal Violet (CV) followed by measurement of absorbance at 570 nm. Shown is average % of CV staining relative to cells not treated with tunicamycin nor Sig-1R binder ±SEM of 3 independent experiments. *p<0.03.
Following, the cells were washed, fixated and stained with Crystal Violet and absorbance at 570 nm was measured. Data is presented relative to cells of the corresponding genotype not treated with p8G5 nor Tunicamycin. Shown is average % of CV staining ±SEM of 3 independent experiments.
Mut MEFs were treated or not for 24 hours with 10, 20 or 30 μM of the indicated Sig-1R binders in the presence of 50 ng/ml Tunicamycin (Tun) during the last 22 hours. Following, the cells were washed, fixated and stained with Crystal Violet (CV) followed by measurement of absorbance at 570 nm. Shown is % of CV staining relative to cells not treated with tunicamycin nor Sig-1R binder ±SEM of 3 independent experiments, *p<0.05.
Mut MEFs were incubated or not with the indicated concentrations of the indicated compounds for 2 hours followed by addition of 50 ng/ml Tunicamycin (Tun) for additional 22 hours, stained with Crystal Violet followed by measurement of absorbance at 570 nm. Shown is average normalized to Tun-treated cells without any compound ±SEM of 3 independent experiments. * not significant; ** p<0.02; *** all values p<0.04.

SMILES: Cc1cccc(OCCCCCN2CCOCC2)c1 [H8 (p8G5), 4-[5-(3-methylphenoxy)pentyl]morpholine]
- level of ROS (CellROX) in Mut cells [1]: corrected the abnormal level of ROS
- Survival (%) ± SEM Mut MEFs (Mut MEFs [2]; 0.1 μM): 104 ± 4.6%
- Survival (%) ± SEM Mut MEFs (Mut MEFs [2]; 1 μM): 102 ± 3.3%
- Survival (%) ± SEM Mut MEFs (Mut MEFs [2]; 10 μM): 99 ± 2.6%
- Survival (%) ± SEM Mut MEFs (Mut MEFs [2]; 30 μM): 105 ± 13%
- effect on survival of Mut cells (Mut MEFs [2]; as high as 30 μM (FIG. 4, Table 3)): did not have any negative effect on the survival
- TMRE staining (mitochondrial membrane potential) (Mut MEFs [3]): increased TMRE staining to a level above that of untreated WT cells
- ATP-linked and maximal respiration in mutant astrocytes (Mut primary astrocytes [4]): increased both ATP-linked and maximal respiration
- mitochondrial content per cell in astrocytes (Mut primary astrocytes [5]): no effect on mitochondrial content per cell
- survival rate of Mut astrocytes under ER-stress conditions (Mut astrocytes): increased the survival rate
- survival of Mut MEFs under Tunicamycin ER-stress (Mut MEFs [6]): attenuated the apoptotic effect
